Source: ChEMBL document CHEMBL1201862, “PubChem BioAssay data set” (2004)
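Five compound concentrations were applied to cells in 96-well plates for 48 hours; endpoints were derived by simple linear interpolation of the resulting dose-response curve. Abbreviation: GI50, concentration required for 50% inhibition of growth.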 The source made the active and inactive calls. Rule as the data show it: active = GI50 up to about 1.1 µM and inactive = higher.

Tests used:
Assay in all cases: inhibition of tumour cell growth, NCI panel, 48 h
SF-539 = system: SF-539
SF-295 = system: SF-295
HOP-92 = system: HOP-92
HL-60 = system: HL-60
SK-OV-3 = system: SK-OV-3
CCRF-CEM = system: CCRF-CEM
HOP-62 = system: HOP-62
MDA-MB-231 = system: MDA-MB-231
Hs-578T = system: Hs-578T
UACC-62 = system: UACC-62
HCT-15 = system: HCT-15
DU-145 = system: DU-145
U-251 = system: U-251
T47D = system: T47D
KM12 = system: KM12
COLO 205 = system: COLO 205
OVCAR-4 = system: OVCAR-4
TK-10 = system: TK-10
OVCAR-8 = system: OVCAR-8
M14 = system: M14

SMILES	GI50 (SF-539)	GI50 (SF-295)	GI50 (HOP-92)	GI50 (HL-60)	GI50 (SK-OV-3)	GI50 (CCRF-CEM)	GI50 (HOP-62)	GI50 (MDA-MB-231)	GI50 (Hs-578T)	GI50 (UACC-62)	GI50 (HCT-15) [µM]	GI50 (DU-145)	GI50 (U-251)	GI50 (T47D)	GI50 (KM12)	GI50 (COLO 205)	GI50 (OVCAR-4)	GI50 (TK-10)	GI50 (OVCAR-8)	GI50 (M14)
CN(C1=NS(=O)(=O)N=C(N(C)c2ccccc2)O1)c1ccccc1	21.6 µM (inactive)	21.8 µM (inactive)	23.6 µM (inactive)	13.6 µM (inactive)	40.1 µM (inactive)	13.4 µM (inactive)	22.9 µM (inactive)	17.6 µM (inactive)	27.7 µM (inactive)	14.2 µM (inactive)	15.1	21.9 µM (inactive)	16 µM (inactive)	21.2 µM (inactive)	17.8 µM (inactive)	21.8 µM (inactive)	20.8 µM (inactive)	35.1 µM (inactive)	17.4 µM (inactive)	18.9 µM (inactive)
Brc1ccc2c3c1[C@@H]1O[C@@H]1c1cccc(c1-3)[C@@H]1O[C@H]21	2.32 µM (inactive)	19.2 µM (inactive)	20.9 µM (inactive)	19.6 µM (inactive)	27.5 µM (inactive)	5.09 µM (inactive)	19.5 µM (inactive)	27.4 µM (inactive)	29.9 µM (inactive)	17.2 µM (inactive)	18.6	24.9 µM (inactive)	17.6 µM (inactive)	15.4 µM (inactive)	16.9 µM (inactive)	21.8 µM (inactive)	17.9 µM (inactive)	41 µM (inactive)	13.8 µM (inactive)	14.5 µM (inactive)
COc1cccc2c1-c1ccccc1[C@H](Nc1ccccc1)[C@@]2(C)O	2.77 µM (inactive)	4.13 µM (inactive)	11.2 µM (inactive)	5.42 µM (inactive)	4.27 µM (inactive)	1.42 µM (inactive)	3.85 µM (inactive)	10.3 µM (inactive)	4.97 µM (inactive)	9.12 µM (inactive)	4.3	5.3 µM (inactive)	4.84 µM (inactive)	8.85 µM (inactive)	3.04 µM (inactive)	3.1 µM (inactive)	10.3 µM (inactive)	8.87 µM (inactive)	10.4 µM (inactive)	3.86 µM (inactive)
O=S(=O)(NNc1ccccc1)c1ccccc1	32.7 µM (inactive)	0.646 µM (active)	19.1 µM (inactive)	1.66 µM (inactive)	65.3 µM (inactive)	14.3 µM (inactive)	12.4 µM (inactive)	1.36 µM (inactive)	61 µM (inactive)	0.481 µM (active)	11.5	13.2 µM (inactive)	16.2 µM (inactive)	12.6 µM (inactive)	1.66 µM (inactive)	8.99 µM (inactive)	2.62 µM (inactive)	> 100 µM (inactive)	28.5 µM (inactive)	0.671 µM (active)
CC(=O)Nc1cc(/C=C\C(=O)N2CC(CCl)c3c2cc(N)c2ccccc32)n(C)n1 (stereo not given)	0.00621 µM (active)	0.0135 µM (active)	0.0194 µM (active)	< 0.001 µM (active)	0.0163 µM (active)	< 0.001 µM (active)	0.00347 µM (active)	0.045 µM (active)	0.0543 µM (active)	0.00423 µM (active)	0.0233	< 0.001 µM (active)	0.0031 µM (active)	0.00299 µM (active)	0.0167 µM (active)	0.0235 µM (active)	0.017 µM (active)	0.0191 µM (active)	0.00168 µM (active)	0.0115 µM (active)
NC(Cc1cccnn1)C(=O)O (stereo not given)	> 100 µM (inactive)	> 100 µM (inactive)	> 100 µM (inactive)	> 100 µM (inactive)	> 100 µM (inactive)	> 100 µM (inactive)	> 100 µM (inactive)	> 100 µM (inactive)	> 100 µM (inactive)	> 100 µM (inactive)	> 100	> 100 µM (inactive)	> 100 µM (inactive)	> 100 µM (inactive)	> 100 µM (inactive)	> 100 µM (inactive)	> 100 µM (inactive)	> 100 µM (inactive)	> 100 µM (inactive)	> 100 µM (inactive)
CCCCCCCCCCCCCCCCOCC(COP(=O)(O)OCC1OC(n2cc(CC)c(=O)[nH]c2=O)CC1O)OC(=O)CCCCCCCCCCCCCCC (stereo not given)	> 100 µM (inactive)	> 100 µM (inactive)	> 100 µM (inactive)	52 µM (inactive)	> 100 µM (inactive)	> 100 µM (inactive)	> 100 µM (inactive)	> 100 µM (inactive)	> 100 µM (inactive)	> 100 µM (inactive)	> 100	> 100 µM (inactive)	> 100 µM (inactive)	> 100 µM (inactive)	> 100 µM (inactive)	> 100 µM (inactive)	> 100 µM (inactive)	> 100 µM (inactive)	> 100 µM (inactive)	> 100 µM (inactive)
O=C1Nc2ccccc2/C1=C1/Nc2ccccc2/C1=N\OCCNCC(O)C(O)C(O)C(O)CO (stereo not given)	14.1 µM (inactive)	30.7 µM (inactive)	10.1 µM (inactive)	5.5 µM (inactive)	9.66 µM (inactive)	10.5 µM (inactive)	11.7 µM (inactive)	11.2 µM (inactive)	13.4 µM (inactive)	8.93 µM (inactive)	> 50	21.2 µM (inactive)	12.9 µM (inactive)	6.7 µM (inactive)	5.14 µM (inactive)	12.1 µM (inactive)	31.5 µM (inactive)	35.8 µM (inactive)	18.5 µM (inactive)	20.9 µM (inactive)
CC[C@@]1(O)C(=O)OCc2c1cc1n(c2=O)Cc2c-1nc1ccccc1c2/C=N\NC(=O)C(N)CS (stereo not given in full)	0.249 µM (active)	0.501 µM (active)	3.13 µM (inactive)	0.346 µM (active)	1.91 µM (inactive)	0.0446 µM (active)	0.295 µM (active)	78.9 µM (inactive)	> 100 µM (inactive)	0.0614 µM (active)	3.83	0.435 µM (active)	0.281 µM (active)	0.1 µM (active)	24.8 µM (inactive)	41.4 µM (inactive)	53.2 µM (inactive)	> 84.9 µM (inactive)	1.09 µM (active)	0.665 µM (active)
C=C1C(=O)OC2C1CCC(C)C1C=CC(=O)C12C (stereo not given)	2.74 µM (inactive)	6.81 µM (inactive)	4.1 µM (inactive)	1.41 µM (inactive)	28 µM (inactive)	1.34 µM (inactive)	15.5 µM (inactive)	2.19 µM (inactive)	2.56 µM (inactive)	1.79 µM (inactive)	1.82	2.53 µM (inactive)	11.9 µM (inactive)	2.45 µM (inactive)	2.16 µM (inactive)	2.17 µM (inactive)	6.76 µM (inactive)	3.05 µM (inactive)	2.06 µM (inactive)	1.95 µM (inactive)
CCOC(=O)/C=C\[C@H]1OC(C)(C)O[C@H]1[C@H](O)[C@H]1COC(C)(C)O1	17.7 µM (inactive)	> 100 µM (inactive)	13.2 µM (inactive)	22.8 µM (inactive)	> 100 µM (inactive)	10.5 µM (inactive)	66.4 µM (inactive)	17.6 µM (inactive)	26.8 µM (inactive)	23.7 µM (inactive)	17	> 100 µM (inactive)	17.7 µM (inactive)	20.5 µM (inactive)	77.3 µM (inactive)	15.8 µM (inactive)	19.3 µM (inactive)	16.1 µM (inactive)	29.8 µM (inactive)	17.8 µM (inactive)
CC(C)OC(=O)c1cc(NC(=S)OC(C)C)ccc1Cl	14.8 µM (inactive)	18.5 µM (inactive)	18.4 µM (inactive)	16.3 µM (inactive)	37 µM (inactive)	39.3 µM (inactive)	90.4 µM (inactive)	15.3 µM (inactive)	17.1 µM (inactive)	16.1 µM (inactive)	21.6	30.1 µM (inactive)	22.9 µM (inactive)	23 µM (inactive)	13.8 µM (inactive)	14.6 µM (inactive)	23.9 µM (inactive)	22.8 µM (inactive)	26.4 µM (inactive)	35.6 µM (inactive)
CSc1cc(N)ccc1/N=N/c1ccc(S(N)(=O)=O)cc1	31.5 µM (inactive)	22.1 µM (inactive)	21.8 µM (inactive)	25.1 µM (inactive)	35.8 µM (inactive)	27.3 µM (inactive)	29.4 µM (inactive)	16.1 µM (inactive)	23.5 µM (inactive)	15.9 µM (inactive)	21.8	34.9 µM (inactive)	26.9 µM (inactive)	18.8 µM (inactive)	30.4 µM (inactive)	25.8 µM (inactive)	27.5 µM (inactive)	29.4 µM (inactive)	22.3 µM (inactive)	38.1 µM (inactive)
CN1CCCC(OC(=O)c2cc3cc(CCl)ccc3oc2=O)C1 (stereo not given)	27 µM (inactive)	25.2 µM (inactive)	15.7 µM (inactive)	2.07 µM (inactive)	35.2 µM (inactive)	19.1 µM (inactive)	25.8 µM (inactive)	21 µM (inactive)	21.9 µM (inactive)	17.3 µM (inactive)	19.2	29.9 µM (inactive)	14.9 µM (inactive)	32.7 µM (inactive)	24 µM (inactive)	17.2 µM (inactive)	20.3 µM (inactive)	18.9 µM (inactive)	28.8 µM (inactive)	14.8 µM (inactive)
